How the values were obtained:
[1] = DLS size and polydispersity of hEPO mRNA lipid nanoparticles; format: physicochemical; details: hEPO mRNA LNP, Cationic Lipid:DMG-PEG2000:Cholesterol:DOPE=40:1.5:28.5:30, N/P ratio 4, Process A
Experimental: The lipid nanoparticles in the examples of the present invention were formulated using Process A of WO 2018/089801 (see, e.g., Example 1 and FIG. 1 of WO 2018/089801). Process A (“A”) relates to a conventional method of encapsulating mRNA by mixing mRNA with a mixture of lipids, without first pre-forming the lipids into lipid nanoparticles. In an exemplary process, an ethanol lipid solution and an aqueous buffered solution of mRNA were prepared separately. A solution of mixture of lipids (cationic lipid, helper lipids, zwitterionic lipids, PEG lipids etc.) was prepared by dissolving lipids in ethanol. The mRNA solution was prepared by dissolving the mRNA in citrate buffer. Then, these two solutions were mixed using a pump system. In some instances, the two solutions were mixed using a gear pump system. In certain embodiments, the two solutions were mixing using a ‘T’ junction (or “Y” junction). The mixture was then purified by diafiltration with a TFF process. The resultant formulation concentrated and stored at 2-8° C. until further use.
(§1) Lipid nanoparticle formulations of Table 1 were prepared by Process A. More specifically, an ethanolic solution of a mixture of lipids including DMG-PEG-2000, cationic lipid, cholesterol, and phosphatidylethanolamine (DOPE) in a ratio of 1.5:40:28.5:30 were combined with an aqueous buffered solution (1 mM Citrate and 150 mM NaCl) of target mRNA at an acidic pH (4.5) under controlled conditions to yield a dispersion of uniform lipid nanoparticles (LNPs). Upon ultrafiltration and diafiltration into the final buffer, the resulting nanoparticle dispersions were diluted to required concentration using the final buffer (10% Trehalose), sterile filtered and stored frozen at −80° C. until use.
All of the lipid nanoparticle formulations comprised hEPO mRNA and the different lipids in following mol % ratios: Cationic Lipid: DMG-PEG2000; Cholesterol:DOPE=40:1.5:28.5:30.
DLS measurements were performed using a Malvern Instruments Zetasizer with a backscattering detector angle of 173° and a 4-mW, 633-nm He—Ne laser (Worcestershire, UK). The samples were analyzed by diluting in 10% Trehalose and measuring the size and Poly dispersity Index (PDI) in an optical grade polystyrene cuvette.
The following lipid nanoparticles were formulated according to Example 51.
as §1, with “Table 3” for “Table 1”

[2] = system: Human erythropoietin (hEPO) levels in sera; experiment: Delivery of hEPO mRNA by intramuscular administration of lipid nanoparticles; serum hEPO by ELISA; format: in vivo, Mouse; details: for hEPO 6 Hr (ng/mL) Mean: 6 hours post dose
Experimental: WO2022/099003 A1 describes an in vivo assay for intramuscular administration (e.g. on page 46, paragraph [00206]). Further details of the intramuscular experiment performed in this application are provided below.
Treatment Regimen: On Day 1, animals from Groups 1-8 were dosed via intramuscular injection while under light isoflurane anesthesia according to the study design table above. Animals in Groups 2-8 were injected with EPO in the right leg only. Group 1 animals received saline control.
Interim Sample Collections: Interim whole blood (~50 μL) was collected by tail snip or saphenous vein at 6 hours post dose administration (±5%). Blood samples were collected into serum separator tubes, allowed to clot at room temperature for at least 10 minutes, centrifuged at ambient temperature at minimum 1000 g for 10 minutes and the serum was extracted. All serum samples were stored at nominally −70° C. until analysis hEPO by the Testing Facility. The results of the EPO analysis were included in the Data Submission.
Terminal Blood Collections: Whole blood was collected via cardiac puncture into serum separator tube, allowed to clot at room temperature for at least 10 minutes, centrifuged at ambient temperature at minimum 1000 g for 10 minutes and the serum was extracted. Serum samples were stored at nominally −70° C. until analyzed for hEPO by the Test Facility.
ELISA Assay: Human erythropoietin (hEPO) levels in sera samples were determined by ELISA kit (R&D systems, Cat #DEP-00) according to the manufactory instruction and the results were included in the Data Submission. The “shaker” protocol was used. The serum samples were diluted between 1:40 and 1:100.
The ability of the further exemplary lipid nanoparticles in Example 54 to deliver hEPO mRNA by intramuscular administration was tested in accordance with the experimental protocol set out in Example 52.

[3] = RiboGreen assay, % encapsulation of mRNA in lipid nanoparticles; format: physicochemical; details: hEPO mRNA LNP, Cationic Lipid:DMG-PEG2000:Cholesterol:DOPE=40:1.5:28.5:30, N/P ratio 4, Process A
Excerpt: In embodiments, the lipid nanoparticle encapsulates a nucleic acid, optionally an mRNA encoding a peptide or protein. In embodiments, the peptide is an antigen. In embodiments, the lipid nanoparticle encapsulates an mRNA encoding a peptide or protein. As used herein, the phrase “encapsulation percentage” refers to the fraction of therapeutic agent (e.g. mRNA) that is effectively encapsulated within a liposomal-based vehicle (e.g. a lipid nanoparticle) relative to the initial fraction of therapeutic agent present in the lipid phase. In embodiments, the lipid nanoparticles have an encapsulation percentage for mRNA of at least 50%. In embodiments, the lipid nanoparticles have an encapsulation percentage for mRNA of at least 55%. In embodiments, the lipid nanoparticles have an encapsulation percentage for mRNA of at least 60%. In embodiments, the lipid nanoparticles have an encapsulation percentage for mRNA of at least 65%. In embodiments, the lipid nanoparticles have an encapsulation percentage for mRNA of at least 70%. In embodiments, the lipid nanoparticles have an encapsulation percentage for mRNA of at least 75%. In embodiments, the lipid nanoparticles have an encapsulation percentage for mRNA of at least 80%. In embodiments, the lipid nanoparticles have an encapsulation percentage for mRNA of at least 85%. In embodiments, the lipid nanoparticles have an encapsulation percentage for mRNA of at least 90%. In embodiments, the lipid nanoparticles have an encapsulation percentage for mRNA of at least 95%. In embodiments, the encapsulation percentage is calculated by performing the Ribogreen assay (Invitrogen) with and without the presence of 0.1% Triton-X 100.
The RiboGreen Assay is a fluorescence-based method for the determination of mRNA concentration (Total and Free) and % encapsulation using Quant-iT™ RiboGreen® RNA reagent in mRNA containing lipid nanoparticles.
• To each of the standards (Blank, mRNA-1, mRNA-2. mRNA-3, mRNA-4, mRNA-5) and Samples (free mRNA and total mRNA), add 1.0 mL of 200-fold Ribogreen Reagent Solution and gently mix by inversion. This is a 2× Dilution. • Add 200 μL of each standard and sample in triplicate using the reverse pipetting technique in a 96-well Costar Black with Clear Background Plate. Ensure no bubbles are present in the plate before the fluorescence reading. • Read the fluorescence signal using the below instrument parameters: • Read Type: Fluorescence, Bottom Read • Excitation: 485 nm; Cut-off: 515 nm; Emission: 530 nm • Plate Type: 96-well Costar Black with Clear Background
The average fluorescence from each calibration standard is plotted against the concentration to generate a linear calibration curve using the MS Excel software. The coefficient of determination (R^2) of calibration curve must be R^2>0.99.
[formula] • Where, • Y=average fluorescence value • m: slope • x: concentration (pg/mL) • c: y-intercept • Using the linear equation, calculate the concentration of free and total mRNA concentration in the test sample by replacing the y value in the equation with the average fluorescence value of each respective sample • Once the concentration is determined, the actual concentration in the sample can be back-calculated by multiplying the concentration in the test sample with the dilution factor (DF) as follows:
[formula] • Concentration of encapsulated mRNA can be determined by subtracting the concentration of free mRNA from the total mRNA. • % Encapsulation can then be calculated by taking the ratio of encapsulated mRNA over total mRNA and multiplying the result with 100.

[4] = fourth occasion, serum, 0.1 μg/animal hEPO mRNA LNP, IM, mice, n=4
[5] = first occasion, serum, 0.1 μg/animal hEPO mRNA LNP, IM, mice, n=4
[6] = third occasion, serum, 0.1 μg/animal hEPO mRNA LNP, IM, mice, n=4

| SMILES | PDI ([1]; Table 3, further LNPs) | Size (nm) ([1]; Table 3, further LNPs) | Encapsulation Percentage (%) ([3]; Table 3, further LNPs) | hEPO 6 Hr (ng/mL) Mean [2, 4] [ng/mL] | other results |
| --- | --- | --- | --- | --- | --- |
| CCCCCCCCCCC(O)CN(CCCOC(=O)[C@H](CCc1ccccc1)NC(=O)CCCN(CC(O)CCCCCCCCCC)CC(O)CCCCCCCCCC)CC(O)CCCCCCCCCC (stereo partly drawn) [Compound XCVI, 3-(bis(2-hydroxydodecyl)amino)propyl (2S)-2-(4-(bis(2-hydroxydodecyl)amino)butanamido)-4-phenylbutanoate] | 0.166 | 123 | 85 | 37.3 | – |
| CCCCCCCCC(O)CN(CCCNC(=O)CC(C)(O)CC(=O)NCCCN(CC(O)CCCCCCCC)CC(O)CCCCCCCC)CC(O)CCCCCCCC (centres unmarked) [LXXXVIII] | 0.134 | 100 | 84 | – | hEPO 6 Hr (ng/mL) Mean [2, 5]: 51.7 ng/mL |
| CCCCCCCCCCC(O)CN(CCCOC(=O)[C@H](Cc1ccc(O)cc1)NC(=O)CCCN(CC(O)CCCCCCCCCC)CC(O)CCCCCCCCCC)CC(O)CCCCCCCCCC (stereo partly drawn) [Compound XCIX, 3-(bis(2-hydroxydodecyl)amino)propyl (4-(bis(2-hydroxydodecyl)amino)butanoyl)-L-tyrosinate] | – | – | – | – | hEPO 6 Hr (ng/mL) Mean [2, 6]: 38.1 ng/mL |
| CCCCCCCCCCC(O)CN(CCCOC(=O)N[C@@H](Cc1ccccc1)C(=O)OCCCN(CC(O)CCCCCCCCCC)CC(O)CCCCCCCCCC)CC(O)CCCCCCCCCC (stereo partly drawn) [Compound XCVII, 3-(bis(2-hydroxydodecyl)amino)propyl ((3-(bis(2-hydroxydodecyl)amino)propoxy)carbonyl)-L-phenylalaninate] | 0.101 | 125 | 83 | – | hEPO 6 Hr (ng/mL) Mean [2, 6]: 16.0 ng/mL |
| CCCCCCCCC(O)CN(CCCOC(=O)CN(C)CC(=O)OCCCN(CC(O)CCCCCCCC)CC(O)CCCCCCCC)CC(O)CCCCCCCC (centres unmarked) [XII] | – | – | – | – | PDI ([1]; Table 1): 0.091; Size (nm) ([1]; Table 1): 110 nm; in vivo hEPO protein production (FIG. 51) ([2]; intramuscular delivery of hEPO mRNA using lipid nanoparticles comprising the compound, result in words): high levels of in vivo hEPO protein production; hEPO 6 Hr (ng/mL) Mean ([2]; serum, 0.1 μg/animal hEPO mRNA LNP, single IM injection, female BALB/cJ mice, n=4): 35.0 ng/mL; hEPO 24 Hr (ng/mL) Mean ([2]; serum, 24 hours post dose, 0.1 μg/animal hEPO mRNA LNP, single IM injection, female BALB/cJ mice, n=4): 15.1 ng/mL; Encapsulation Percentage (%) ([3]; Table 1): 46% |

More lines, main results first:

| PDI ([1]; Table 3, further LNPs) | Size (nm) ([1]; Table 3, further LNPs) | Encapsulation Percentage (%) ([3]; Table 3, further LNPs) | SMILES | hEPO 6 Hr (ng/mL) Mean [2, 4] [ng/mL] | other results |
| --- | --- | --- | --- | --- | --- |
| 0.111 | 123 | 88 | CCCCCCCCCCC(O)CN(CCCNC(=O)CC(C)(C)CC(=O)NCCCN(CC(O)CCCCCCCCCC)CC(O)CCCCCCCCCC)CC(O)CCCCCCCCCC (centres unmarked) [Compound LXXXVII, N,N′-bis({3-[bis(2-hydroxydodecyl)amino]propyl})-3,3-dimethylpentanediamide] | – | hEPO 6 Hr (ng/mL) Mean [2, 5]: 29.1 ng/mL |
| 0.155 | 135 | 85 | CCCCCCCCCCC(O)CN(CCCOC(=O)[C@H](Cc1c[nH]c2ccccc12)NC(=O)CCCN(CC(O)CCCCCCCCCC)CC(O)CCCCCCCCCC)CC(O)CCCCCCCCCC (stereo partly drawn) [Compound CI, 3-(bis(2-hydroxydodecyl)amino)propyl (4-(bis(2-hydroxydodecyl)amino)butanoyl)-L-tryptophanate] | – | hEPO 6 Hr (ng/mL) Mean ([2]; second occasion, serum, 0.1 μg/animal hEPO mRNA LNP, IM, mice, n=4): 40.5 ng/mL |
| 0.126 | 93 | 91 | CCCCCCCCCCC(O)CN(CCCOC(=O)N[C@@H](Cc1c[nH]cn1)C(=O)OCCCN(CC(O)CCCCCCCCCC)CC(O)CCCCCCCCCC)CC(O)CCCCCCCCCC (stereo partly drawn) [Compound CIII, 3-(bis(2-hydroxydodecyl)amino)propyl ((3-(bis(2-hydroxydodecyl)amino)propoxy)carbonyl)-L-histidinate] | 15.4 | – |
| 0.191 | 94 | 66 | CCCCCCCCCCC(O)CN(CCCOC(=O)[C@H](Cc1ccccc1)NC(=O)CCCN(CC(O)CCCCCCCCCC)CC(O)CCCCCCCCCC)CC(O)CCCCCCCCCC (stereo partly drawn) [Compound XCV, 3-[bis(2-hydroxydodecyl)amino]propyl (S)-2-{4-[bis(2-hydroxydodecyl)amino]butyrylamino}-3-phenylpropionate] | 22.4 | – |

— patent US20260216368A1, “BIS-ESTER AND AMIDE CATIONIC LIPIDS” (SANOFI PASTEUR INC., priority 2022, published 2026)
